System: purified astrocyte cultures
Assay: CXCL1 addition to purified spinal cord astrocyte cultures, CSPG by immunocytochemistry and dot blot
Assay type: cell-based
Conditions: CXCL1 0.5 ng/ml, 3 days
Method: Cells were treated with CXCL1 (0.5 ng/ml) for 3 days and assayed for CSPG deposition onto substrate by immunocytochemistry and released into medium. […] GFAP (red), CSPG (green) (FIG. 34) For the culture studies, cultures of spinal cord astrocytes were assayed for basal levels of mRNA expression of CXCL1 and CXCR2 by RT-PCR (FIG. 33). The effect of 3 day CXCL1 protein addition (0.5 ng/ml) on CSPG protein expression was conducted on spinal cord astrocyte cultures as well as by immunocytochemistry and dot blot assays to analyze secreted and bound CSPG (FIG. 34).

Substance: CXCL1: soluble secreted chemoattractive cytokine of the ELR positive family of CXC chemokines; preferred receptor CXCR2
- CSPG expression (deposition onto substrate, immunocytochemistry): induces CSPG expression
- CSPG released into medium (dot blot): increased CSPG
- astrocyte morphology: changes morphology

From patent publication US20090041753A1, “Cytokine signaling” (priority 2006, published 2009)
